Measurements reported in PubChem BioAssay AID1919002 (Molecular Pharmacology Branch, DTP, NCI, 2023).
pIC50: −log10 of the molar value. One block for each compound: values may come before it.

Tested on: 743489-274-T-PDC complex spheroid growth
Experiment: Anticancer human tumor 743489-274-T-PDC patient-derived renal cell carcinoma cell line growth inhibition [AhR]
Details: for viability, T/C: stronger effect = lower value
How it was run: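 Spheroids combined tumor cells with HUVEC endothelial cells and human MSCs as stroma. AhR antagonists were paired with standard or investigational drugs, each dosed in half-log steps down from near clinical Cmax, or from 10 microM where Cmax was unknown.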

[1] = curve of first compound, second compound 0.1 µM
[2] = curve of first compound, second compound 0.316 µM
[3] = curve of first compound, second compound 1 µM
[4] = curve of first compound, second compound 3.16 µM
[5] = curve of first compound, second compound 10 µM
[6] = second compound 0.1 µM, first compound 0.0316 µM
[7] = second compound 0.1 µM, first compound 0.1 µM
[8] = second compound 0.1 µM, first compound 0.316 µM
[9] = second compound 0.1 µM, first compound 1 µM
[10] = second compound 0.1 µM, first compound 3.16 µM
[11] = second compound 0.1 µM, first compound 10 µM
[12] = second compound 0.316 µM, first compound 0.0316 µM
[13] = second compound 0.316 µM, first compound 0.1 µM
[14] = second compound 0.316 µM, first compound 0.316 µM
[15] = second compound 0.316 µM, first compound 1 µM
[16] = second compound 0.316 µM, first compound 3.16 µM
[17] = second compound 0.316 µM, first compound 10 µM
[18] = second compound 1 µM, first compound 0.0316 µM
[19] = second compound 1 µM, first compound 0.1 µM
[20] = second compound 1 µM, first compound 0.316 µM
[21] = second compound 1 µM, first compound 1 µM
[22] = second compound 1 µM, first compound 3.16 µM
[23] = second compound 1 µM, first compound 10 µM
[24] = second compound 3.16 µM, first compound 0.0316 µM
[25] = second compound 3.16 µM, first compound 0.1 µM
[26] = second compound 3.16 µM, first compound 0.316 µM
[27] = second compound 3.16 µM, first compound 1 µM
[28] = second compound 3.16 µM, first compound 3.16 µM
[29] = second compound 3.16 µM, first compound 10 µM
[30] = second compound 10 µM, first compound 0.0316 µM
[31] = second compound 10 µM, first compound 0.1 µM
[32] = second compound 10 µM, first compound 0.316 µM
[33] = second compound 10 µM, first compound 1 µM
[34] = second compound 10 µM, first compound 3.16 µM
[35] = second compound 10 µM, first compound 10 µM
[36] = second compound 0.1 µM, first compound 0.00949 µM
[37] = second compound 0.1 µM, first compound 0.03 µM
[38] = second compound 0.1 µM, first compound 0.0949 µM
[39] = second compound 0.1 µM, first compound 0.3 µM
[40] = second compound 0.1 µM, first compound 0.949 µM
[41] = second compound 0.1 µM, first compound 3 µM
[42] = second compound 0.316 µM, first compound 0.00949 µM
[43] = second compound 0.316 µM, first compound 0.03 µM
[44] = second compound 0.316 µM, first compound 0.0949 µM
[45] = second compound 0.316 µM, first compound 0.3 µM
[46] = second compound 0.316 µM, first compound 0.949 µM
[47] = second compound 0.316 µM, first compound 3 µM
[48] = second compound 1 µM, first compound 0.00949 µM
[49] = second compound 1 µM, first compound 0.03 µM
[50] = second compound 1 µM, first compound 0.0949 µM
[51] = second compound 1 µM, first compound 0.3 µM
[52] = second compound 1 µM, first compound 0.949 µM
[53] = second compound 1 µM, first compound 3 µM
[54] = second compound 3.16 µM, first compound 0.00949 µM
[55] = second compound 3.16 µM, first compound 0.03 µM
[56] = second compound 3.16 µM, first compound 0.0949 µM
[57] = second compound 3.16 µM, first compound 0.3 µM
[58] = second compound 3.16 µM, first compound 0.949 µM
[59] = second compound 3.16 µM, first compound 3 µM
[60] = second compound 10 µM, first compound 0.00949 µM
[61] = second compound 10 µM, first compound 0.03 µM
[62] = second compound 10 µM, first compound 0.0949 µM
[63] = second compound 10 µM, first compound 0.3 µM
[64] = second compound 10 µM, first compound 0.949 µM
[65] = second compound 10 µM, first compound 3 µM
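Also: spheroids exposed to agents for 7 days before readout.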
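For viability, T/C in this document: 100% = DMSO vehicle control wells.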

pIC50 [1]: < 5.00
pIC50 [2]: < 5.00
pIC50 [3]: < 5.00
pIC50 [4]: < 5.00
pIC50 [5]: < 5.00
SMILES: Nc1ccn(C2OC(CO)C(O)C2(F)F)c(=O)n1 (centres undefined) + CC(CO)NC(=O)c1cc(-c2ccc(Cl)cc2)nn(-c2cnn(C)c2)c1=O
viability, T/C [6]: 81.9%
viability, T/C [7]: 79.7%
viability, T/C [8]: 71.8%
viability, T/C [9]: 62.2%
viability, T/C [10]: 59.9%
viability, T/C [11]: 67.7%
viability, T/C [12]: 80.7%
viability, T/C [13]: 73%
viability, T/C [14]: 70.8%
viability, T/C [15]: 68.3%
viability, T/C [16]: 62.6%
viability, T/C [17]: 69.9%
viability, T/C [18]: 84%
viability, T/C [19]: 68.5%
viability, T/C [20]: 68.3%
viability, T/C [21]: 59.5%
viability, T/C [22]: 70%
viability, T/C [23]: 71.5%
viability, T/C [24]: 81.1%
viability, T/C [25]: 75.9%
viability, T/C [26]: 64.4%
viability, T/C [27]: 64.7%
viability, T/C [28]: 76.6%
viability, T/C [29]: 63.6%
viability, T/C [30]: 90.2%
viability, T/C [31]: 82.5%
viability, T/C [32]: 65.3%
viability, T/C [33]: 65.1%
viability, T/C [34]: 77.2%
viability, T/C [35]: 74.3%

pIC50 [1]: < 5.52
pIC50 [2]: < 5.52
pIC50 [3]: < 5.52
pIC50 [4]: < 5.52
pIC50 [5]: < 5.52
SMILES: CCN(c1cc(-c2ccc(CN3CCOCC3)cc2)cc(C(=O)NCc2c(C)cc(C)[nH]c2=O)c1C)C1CCOCC1 + Cc1ccccc1N=Nc1ccc(NC(=O)c2ccnn2C)c(C)c1
viability, T/C [36]: 91.2%
viability, T/C [37]: 88.2%
viability, T/C [38]: 93.7%
viability, T/C [39]: 84.5%
viability, T/C [40]: 90.8%
viability, T/C [41]: 90.4%
viability, T/C [42]: 82.1%
viability, T/C [43]: 93.3%
viability, T/C [44]: 86.2%
viability, T/C [45]: 77.3%
viability, T/C [46]: 86.6%
viability, T/C [47]: 84.2%
viability, T/C [48]: 88.6%
viability, T/C [49]: 83.2%
viability, T/C [50]: 89.5%
viability, T/C [51]: 94.3%
viability, T/C [52]: 81%
viability, T/C [53]: 99.6%
viability, T/C [54]: 76%
viability, T/C [55]: 77%
viability, T/C [56]: 77.2%
viability, T/C [57]: 74.5%
viability, T/C [58]: 81%
viability, T/C [59]: 82%
viability, T/C [60]: 72.2%
viability, T/C [61]: 84.3%
viability, T/C [62]: 85.9%
viability, T/C [63]: 71.7%
viability, T/C [64]: 77.9%
viability, T/C [65]: 73.1%

pIC50 [1]: < 5.00
pIC50 [2]: < 5.00
pIC50 [3]: < 5.00
pIC50 [4]: < 5.00
pIC50 [5]: < 5.00
SMILES: CC1COCCN1c1cc(C2(S(C)(=N)=O)CC2)nc(-c2ccnc3[nH]ccc23)n1 (centres undefined) + Cc1cncc(-c2nc(NCCc3c[nH]c4ccccc34)c3ncn(C(C)C)c3n2)c1
viability, T/C [6]: 104%
viability, T/C [7]: 93.8%
viability, T/C [8]: 89.3%
viability, T/C [9]: 86%
viability, T/C [10]: 85.9%
viability, T/C [11]: 85.4%
viability, T/C [12]: 87.9%
viability, T/C [13]: 89.8%
viability, T/C [14]: 85.1%
viability, T/C [15]: 86.4%
viability, T/C [16]: 90%
viability, T/C [17]: 84.3%
viability, T/C [18]: 88.7%
viability, T/C [19]: 91.7%
viability, T/C [20]: 97.3%
viability, T/C [21]: 98.1%
viability, T/C [22]: 84.1%
viability, T/C [23]: 83.7%
viability, T/C [24]: 109%
viability, T/C [25]: 108%
viability, T/C [26]: 105%
viability, T/C [27]: 90.9%
viability, T/C [28]: 91.4%
viability, T/C [29]: 85.7%
viability, T/C [30]: 97.3%
viability, T/C [31]: 117%
viability, T/C [32]: 92.5%
viability, T/C [33]: 107%
viability, T/C [34]: 105%
viability, T/C [35]: 99.1%

pIC50 [1]: < 5.00
pIC50 [2]: < 5.00
pIC50 [3]: < 5.00
pIC50 [4]: < 5.00
pIC50 [5]: < 5.00
SMILES: NS(=O)(=O)OCC1CC(n2ccc3c(NC4CCc5ccccc54)ncnc32)CC1O (centres undefined) + Cc1cncc(-c2nc(NCCc3c[nH]c4ccccc34)c3ncn(C(C)C)c3n2)c1
viability, T/C [6]: 105%
viability, T/C [7]: 98.2%
viability, T/C [8]: 99.8%
viability, T/C [9]: 112%
viability, T/C [10]: 128%
viability, T/C [11]: 154%
viability, T/C [12]: 93.2%
viability, T/C [13]: 92.7%
viability, T/C [14]: 110%
viability, T/C [15]: 125%
viability, T/C [16]: 136%
viability, T/C [17]: 139%
viability, T/C [18]: 96.8%
viability, T/C [19]: 98.7%
viability, T/C [20]: 116%
viability, T/C [21]: 133%
viability, T/C [22]: 149%
viability, T/C [23]: 134%
viability, T/C [24]: 119%
viability, T/C [25]: 114%
viability, T/C [26]: 119%
viability, T/C [27]: 136%
viability, T/C [28]: 152%
viability, T/C [29]: 139%
viability, T/C [30]: 114%
viability, T/C [31]: 127%
viability, T/C [32]: 106%
viability, T/C [33]: 103%
viability, T/C [34]: 118%
viability, T/C [35]: 123%

pIC50 (compound alone, run of 08/22/2022): < 5.00
SMILES: Cc1ccccc1N=Nc1ccc(NC(=O)c2ccnn2C)c(C)c1
viability, T/C (compound 0.1 µM): 90.5% [middle of 20 runs]
viability, T/C (compound 0.316 µM): 90.9% [middle of 20 runs]
viability, T/C (compound 1 µM): 86.1% [middle of 20 runs]

pIC50 [1]: < 5.00
pIC50 [2]: < 5.00
pIC50 [3]: < 5.00
pIC50 [4]: < 5.00
pIC50 [5]: < 5.00
SMILES: CC(C)c1c(-c2ccccc2)nc2c(C#N)c[nH]n2c1=O + Cc1ccccc1N=Nc1ccc(NC(=O)c2ccnn2C)c(C)c1
viability, T/C [6]: 102%
viability, T/C [7]: 103%
viability, T/C [8]: 93.3%
viability, T/C [9]: 96%
viability, T/C [10]: 109%
viability, T/C [11]: 99.4%
viability, T/C [12]: 102%
viability, T/C [13]: 102%
viability, T/C [14]: 101%
viability, T/C [15]: 94.1%
viability, T/C [16]: 100%
viability, T/C [17]: 91.3%
viability, T/C [18]: 111%
viability, T/C [19]: 93.8%
viability, T/C [20]: 108%
viability, T/C [21]: 109%
viability, T/C [22]: 95.7%
viability, T/C [23]: 96.2%
viability, T/C [24]: 94.3%
viability, T/C [25]: 98.1%
viability, T/C [26]: 94.5%
viability, T/C [27]: 103%
viability, T/C [28]: 104%
viability, T/C [29]: 90.4%
viability, T/C [30]: 92.2%
viability, T/C [31]: 99.2%
viability, T/C [32]: 104%
viability, T/C [33]: 93.2%
viability, T/C [34]: 85.8%
viability, T/C [35]: 86.9%

pIC50 [1]: < 5.52
pIC50 [2]: < 5.52
pIC50 [3]: < 5.52
pIC50 [4]: < 5.52
pIC50 [5]: < 5.52
SMILES: O=C(C=Cn1cnc(-c2cc(C(F)(F)F)cc(C(F)(F)F)c2)n1)NNc1cnccn1 + Cc1cncc(-c2nc(NCCc3c[nH]c4ccccc34)c3ncn(C(C)C)c3n2)c1
viability, T/C [36]: 103%
viability, T/C [37]: 95.6%
viability, T/C [38]: 112%
viability, T/C [39]: 122%
viability, T/C [40]: 124%
viability, T/C [41]: 96.5%
viability, T/C [42]: 96.2%
viability, T/C [43]: 92.5%
viability, T/C [44]: 97.5%
viability, T/C [45]: 107%
viability, T/C [46]: 106%
viability, T/C [47]: 83.7%
viability, T/C [48]: 94.5%
viability, T/C [49]: 102%
viability, T/C [50]: 98.7%
viability, T/C [51]: 105%
viability, T/C [52]: 108%
viability, T/C [53]: 104%
viability, T/C [54]: 111%
viability, T/C [55]: 101%
viability, T/C [56]: 102%
viability, T/C [57]: 117%
viability, T/C [58]: 103%
viability, T/C [59]: 96.2%
viability, T/C [60]: 80.4%
viability, T/C [61]: 80.2%
viability, T/C [62]: 84.4%
viability, T/C [63]: 102%
viability, T/C [64]: 102%
viability, T/C [65]: 101%
